This test relates to B16 subline of high pulmonary metastatic potential. As to conditions: Table 2, B16 subline, 3 days. As for the experimental part:
(§1) The B16 subline of high pulmonary metastatic potential and murine tumor cell line L 929 were cultured in DME medium supplemented with 10% bovine fetal serum at 37° C. in the presence of 5% CO2. Then, cells were detached from the Petri dish with trypsin-EDTA solution. The B16 subline and L 929 were suspended in the medium described above in 1×10^4 cells/ml and 1×10^3 cells/ml, respectively. Each suspension, 150 μl, was added to 50 μl of N-(3-phenylpropyl)-1-deoxynojirimycin solution or Adriamycin (control) solution. Incubation was performed for 3 days for the B16 subline and for 4 days for L 929 strain.
as §1, with “of N-(4-phenoxy-trans-2-butenyl)-1-deoxynojirimycin” for “of N-(3-phenylpropyl)-1-deoxynojirimycin”, “days in” for “days for”, “L 929.” for “L 929 strain.”
The B16 subline of high pulmonary metastatic potential and murine tumor cell line L 929 were cultured in DME medium supplemented with 10% bovine fetal serum at 37° C. in the presence of 5% CO2. Then, cells were detached from the Petri dish with trypsin-EDTA solution. The B16 subline and L 929 were suspended in the medium described above in 1×10^4 cells/ml and 1×10^3 cells/ml, respectively. Each suspension, 150 μl, was added to 50 μl of D-glucaro-δ-lactam calcium salt solution or Adriamycin (control) solutions. Incubation was performed for 3 days in the B16 subline and for 4 days in L 929.
The B16 subline of high pulmonary metastatic potential and murine tumor cell line L 929 were cultured in DME medium supplemented with 10% bovine fetal serum at 37° C. in the presence of 5% CO2. Then, cells were detached from the Petri dish with trypsin-EDTA solution. The B16 subline and L 929 were suspended in the medium described above in 1×10^4 cells/ml and 1×10^3 cells/ml, respectively. Each suspension, 150 μl, was added to 50 μl of 2,6-di-O-(1-(p-chlorobenzoyl)-5-methoxy-2-methylindole-3-acetyl)-D-gluco-δ-lactam solution or and Adriamycin (control) solutions. Incubation was performed for 3 days in the B16 subline and for 4 days in L 929.
The B16 subline of high pulmanary metastatic potential and murine tumor cell line L 929 were cultured in DME medium supplemented with 10% bovine fetal serum at 37° C. in the presence of 5% CO2. Then, cells were detached from the Petri dish with trypsin-EDTA solution. The B16 subline and L 929 were suspended in the medium described above in 1×10^4 cells/ml and 1×10^3 cells/ml, respectively. Each suspension, 150 μl, was added to 50 μl of 6-O-triphenylmethyl-D-gluco-δ-lactam solution or Adriamycin (control) solutions. Incubation was performed for 3 days in the B16 sibline and for 4 days in L 929.
The B16 subline of high pulmonary metastatic potential was inoculated into DME medium supplemented with 10% bovine fetal serum and 30 μg/ml of 1-deoxynojirimycin was added thereto followed by incubation at 37° C. for 3 days in the presence of 5% CO2. […] Next, the cells were detached from the Petri dish with trypsin-EDTA solution. The cells were suspended in PBS- in 1×10^6 cells/ml as viable cells. This suspension, 0.1 ml, was intravenously injected in the tail vein of the mouse BDF1 (8 week age, male; 1 group, 3 mice). After feeding for 14 days, the mouse was sacrificed to excise the lungs. The number of colonies of the B16 subline on the surface of and in the lungs was counted.

Like-named read-outs stand apart in the source and are kept apart here.
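Note: + means growth and ± means marked inhibition and - means cell death.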

With `OC[C@@H]1[C@@H](O)[C@H](O)[C@@H](O)CN1CCCc1ccccc1` [N-(3-Phenylpropyl)-1-deoxynojirimycin, N-(3-phenylpropyl)-1-deoxynojirimycin], the Growth result runs as follows: (30 μg/ml) “+”; (100 μg/ml) “+”; (300 μg/ml) “±”.

(Values after patent US4985445A, “Cancer cell metastasis inhibitors and novel compounds” (Meiji Seika Kaisha, Ltd., priority 1988, dated 1991).)
